In patent US8618107B2 (Gilead Connecticut, Inc., priority 2010, dated 2013) one finds melting point, IC50 and EC50 data, which are given here for 22 molecules.

Data set [1] relates to CD69 on CD20 positive cells in human whole blood stimulated by anti-IgM. Briefly: CD69 Whole Blood Assay. The format is cell-based. Particulars: anti-human IgM stimulation, 20 hours.
Method: Human blood is obtained from healthy volunteers, with the following restrictions: 1 week drug-free, non-smokers. Blood (approximately 20 mls to test 8 compounds) is collected by venipuncture into Vacutainer® (Becton, Dickinson and Co.) tubes with sodium heparin.
Solutions of Formula I compounds at 10 mM in DMSO are diluted 1:10 in 100% DMSO, then are diluted by three-fold serial dilutions in 100% DMSO for a ten point dose-response curve. The compounds are further diluted 1:10 in PBS and then an aliquot of 5.5 μl of each compound is added in duplicate to a 2 ml 96-well plate; 5.5 μl of 10% DMSO in PBS is added as control and no-stimulus wells. Human whole blood—HWB (100 μl) is added to each well. After mixing the plates are incubated at 37° C., 5% CO2, 100% humidity for 30 minutes. Goat F(ab′)2 anti-human IgM (10 μl of a 500 μg/ml solution, 50 μg/ml final) is added to each well (except the no-stimulus wells) with mixing and the plates are incubated for an additional 20 hours. At the end of the 20 hour incubation, samples are incubated with fluorescent labeled antibodies for 30 minutes, at 37° C., 5% CO2, 100% humidity. Include induced control, unstained and single stains for compensation adjustments and initial voltage settings. Samples are then lysed with PharM Lyse™ (BD Biosciences Pharmingen) according to the manufacturer's instructions. Samples are then transferred to a 96 well plate suitable to be run on the BD Biosciences HTS 96 well system on the LSRII machine. Data acquired and Mean Fluorescence Intensity values were obtained using BD Biosciences DIVA Software. Results are initially analyzed by FACS analysis software (Flow Jo). […] The IC50 values are calculated by Prism version 5, using a nonlinear regression curve fit.
In data set [2] the test system is CD86 surface expression on CD19+/7AAD- mouse splenocytes stimulated with IgM. The experiment in a line: CD86 Inhibition Assay. Particulars: Splenocyte; total mouse splenocytes (Balb/c), IgM stimulation 24 hr. It is filed as cell-based.
Method: Following the 24 hr incubation, cells are transferred to conical bottom clear 96-well plates and pelleted by centrifugation at 1200×g×5 min. […] Cells are sorted on a BD FACSCalibur and gated on the CD19^+/7AAD^− population. The levels of CD86 surface expression on the gated population is measured versus test compound concentration.
The target in data set [3] is Btk (Homo sapiens (Human), UniProt Q06187). Briefly: standard biochemical Btk Kinase Assay (Example 901).
Chain of Btk (Q06187 whole entry): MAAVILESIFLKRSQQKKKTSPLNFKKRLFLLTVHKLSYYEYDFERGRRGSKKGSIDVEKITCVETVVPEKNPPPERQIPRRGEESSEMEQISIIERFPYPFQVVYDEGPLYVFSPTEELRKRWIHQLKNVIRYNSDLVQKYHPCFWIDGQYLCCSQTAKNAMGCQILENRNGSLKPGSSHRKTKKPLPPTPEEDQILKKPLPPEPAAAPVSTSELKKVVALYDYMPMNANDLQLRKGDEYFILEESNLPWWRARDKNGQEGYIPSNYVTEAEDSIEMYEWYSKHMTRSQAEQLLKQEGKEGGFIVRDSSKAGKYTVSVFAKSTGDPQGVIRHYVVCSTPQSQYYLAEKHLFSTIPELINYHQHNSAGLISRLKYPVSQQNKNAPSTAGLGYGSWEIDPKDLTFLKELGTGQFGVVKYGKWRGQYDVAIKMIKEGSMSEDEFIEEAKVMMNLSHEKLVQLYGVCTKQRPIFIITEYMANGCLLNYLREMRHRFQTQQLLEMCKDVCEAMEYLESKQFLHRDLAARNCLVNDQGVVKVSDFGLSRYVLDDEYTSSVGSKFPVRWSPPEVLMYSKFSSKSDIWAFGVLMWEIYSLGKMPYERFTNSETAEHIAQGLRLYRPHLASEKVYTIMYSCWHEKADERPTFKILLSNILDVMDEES
From the text: Determination of IC50 values can be accomplished using conventional techniques known in the art. In general, an IC50 can be determined by measuring the activity of a given enzyme in the presence of a range of concentrations of the inhibitor under study. The experimentally obtained values of enzyme activity then are plotted against the inhibitor concentrations used. […] Analogously, other inhibitory concentrations can be defined through appropriate determinations of activity.

By melting point is commonly meant the temperature of the solid-liquid transition. Regarding `CN1CCCC1c1ccc(Nc2cc(-c3cc(F)cc(N4CCc5c(sc6c5CCCC6)C4=O)c3CO)cn(C)c2=O)nc1` (stereo not shown), the melting point is 164 to 166 °C.
A word on the IC50: it is the concentration that inhibits the measured activity by half. A low value points to greater potency. By EC50 is commonly meant the midpoint of the concentration-response curve. Low values mean higher potency in that assay, high ones lower potency in that assay. In data set [1], `CN1CCCC1c1ccc(Nc2cc(-c3cc(F)cc(N4CCc5c(sc6c5CCCC6)C4=O)c3CO)cn(C)c2=O)nc1` (stereo in doubt) [Example 313, 5-[5-Fluoro-2-(hydroxymethyl)-3-(1-methyl-5-{[5-(2S)-(1-methylpyrrolidin-2-yl)pyridine-2-yl]amino}-6-oxo-1,6-dihydropyridin-3-yl)phenyl]-8-thia-5-azatricyclo[7.4.0.0^2,7]trideca-1(9),2(7)-dien-6-one] had an IC50 of 44 nM. In data set [2], this molecule gave a concentration for a half-maximal effect (EC50) of 6 nM.
Molecule `Cn1cc(-c2cccc(N3CCn4c(cc5c4CCCC5)C3=O)c2CO)cc(Nc2cc3n(n2)CCOC3)c1=O` [Example 110, 2-(3-(5-(6,7-dihydro-4H-pyrazolo[5,1-c][1,4]oxazin-2-ylamino)-1-methyl-6-oxo-1,6-dihydropyridin-3-yl)-2-(hydroxymethyl)phenyl)-3,4,6,7,8,9-hexahydropyrazino[1,2-a]indol-1(2H)-one] had a half-maximal inhibitory concentration (IC50) in data set [3] (Table 1) of 7.7 nM. The same molecule returned an EC50 in data set [2] of 22 nM.
For `CN1CCN(c2ccc(Nc3cc(-c4cccc(N5CCn6c(cc7c6CCCC7)C5=O)c4CO)cn(C)c3=O)nc2)CC1` [Example 113, 2-(2-(hydroxymethyl)-3-(1-methyl-5-(5-(4-methylpiperazin-1-yl)pyridine-2-ylamino)-6-oxo-1,6-dihydropyridin-3-yl)phenyl)-3,4,6,7,8,9-hexahydropyrazino[1,2-a]indol-1(2H)-one] the same measures were 5 nM and 21 nM.
In turn, `Cn1cc(-c2cccc(N3CCc4c(sc5c4CC(C)(C)C5)C3=O)c2CO)cc(Nc2cc3n(n2)CCOC3)c1=O` [Example 183] showed a melting point of 167 to 168 °C.
Consider `Cn1cc(-c2cccc(N3CCc4c(sc5c4CC(C)(C)C5)C3=O)c2CO)nc(Nc2cccnc2)c1=O` [Example 193, 5-(2-(Hydroxymethyl)-3-(6,6-dimethyl-3,4,6,7-tetrahydro-5H-cyclopenta[4,5]thieno[2,3-c]pyridine-1(2H)-yl))-1-methyl-3-(pyridin-3-ylamino)pyrazin-2(1H)-one], for which the melting point was in the range of 135 to 136 °C.
In data set [1], `CN1CCN(c2ccc(Nc3cc(-c4cc(F)cc(N5CCn6c(cc7c6CCCC7)C5=O)c4CO)cn(C)c3=O)nc2)CC1` [Example 197, 2-(5-fluoro-2-(hydroxymethyl)-3-(1-methyl-5-(5-(4-methylpiperazin-1-yl)pyridin-2-ylamino)-6-oxo-1,6-dihydropyridin-3-yl)phenyl)-3,4,6,7,8,9-hexahydropyrazino[1,2-a]indol-1(2H)-one] had an IC50 of 23 nM. In data set [2], the EC50 turned out to be 22 nM.
Turning to `Cn1cc(-c2cccc(-n3ccc4c5c(sc4c3=O)CC(C)(C)C5)c2CO)cc(Nc2ccncn2)c1=O` [Example 203, 5-(3-(6,6-Dimethyl-5,7-dihydro-5H-cyclopenta[4,5]thieno[2,3-c]pyridine-1(2H)-yl)-2-(hydroxymethyl)phenyl)-1-methyl-3-(pyrimidin-4-ylamino)pyridin-2(1H)-one], the melting point lay in the range of 170 to 171 °C.
Same read-out and setting: the result for `CN1CCN(c2ccc(Nc3cc(-c4cc(F)cc(N5CCc6c(sc7c6CC(C)(C)C7)C5=O)c4CO)cn(C)c3=O)nc2)CC1` [Example 204] reads 143 to 145 °C.
On to `Cc1cc(Nc2cc(-c3cccc(N4CCc5c(cc6n5CCCC6)C4=O)c3CO)cn(C)c2=O)n[nH]1` [Example 225, 2-(2-(Hydroxymethyl)-3-(1-methyl-5-(5-methyl-1H-pyrazol-3-ylamino)-6-oxo-1,6-dihydropyridin-3-yl)phenyl)-3,4,6,7,8,9-hexahydropyrido[3,4-b]indolizin-1(2H)-one], for which the melting point is 199 to 200 °C.
On the same count and under the same terms, the result for `Cn1cc(-c2cccc(N3CCc4c(cc5n4CCCC5)C3=O)c2CO)cc(Nc2ccc(C3CNC3)cn2)c1=O` [Example 227, 2-(3-(5-(5-(Azetidin-3-yl)pyridin-2-ylamino)-1-methyl-6-oxo-1,6-dihydropyridin-3-yl)-2-(hydroxymethyl)phenyl)-3,4,6,7,8,9-hexahydropyrido[3,4-b]indolizin-1(2H)-one] reads 227 to 229 °C; that for `Cn1cc(-c2cc(F)cc(N3CCc4c(sc5c4CC(C)(C)C5)C3=O)c2CO)cc(Nc2ccc(N3CCN(C4COC4)CC3)cn2)c1=O` [Example 237], 175 to 177 °C.
On the same count and under the same terms, the result for `CC(C)N1CCN(c2ccc(Nc3cc(-c4cc(F)cc(N5CCc6c(sc7c6CC(C)(C)C7)C5=O)c4CO)cn(C)c3=O)nc2)CC1` [Example 239] reads 191 to 192 °C.
The molecule `Cn1cc(-c2cc(F)cc(N3CCn4c(cc5c4CC(C)(C)C5)C3=O)c2CO)cc(Nc2ccc(N3CCN(CCF)CC3)cn2)c1=O` [Example 273, 10-{5-Fluoro-3-[5-({5-[4-(2-fluoroethyl)piperazin-1-yl]pyridine-2-yl}amino)-1-methyl-6-oxo-1,6-dihydropyridin-3-yl]-2-(hydroxymethyl)phenyl}-4,4-dimethyl-1,10-diazatricyclo[6.4.0.0^2,6]dodeca-2(6),7-dien-9-one] yielded an IC50 in data set [3] (Table 2) of 6.35 nM. The same molecule returned an EC50 in data set [2] of 3 nM.
In the case of `CN1CCN(c2ccc(Nc3cc(-c4cccc(N5CCc6c(cc7n6CCCC7)C5=O)c4CO)cn(C)c3=O)nc2)CC1` [Example 275, 2-(2-(Hydroxymethyl)-3-(1-methyl-5-(5-(4-methylpiperazin-1-yl)pyridin-2-ylamino)-6-oxo-1,6-dihydropyridin-3-yl)phenyl)-3,4,6,7,8,9-hexahydropyrido[3,4-b]indolizin-1(2H)-one], the melting point was 180 to 181 °C. In data set [3] (Table 2), this molecule gave an IC50 of 16.3 nM.
In data set [3] (Table 2), `CCN1CCc2nc(Nc3cc(-c4cc(F)cc(N5CCn6c(cc7c6CC(C)(C)C7)C5=O)c4CO)cn(C)c3=O)ccc2C1` [Example 284, 10-(3-{5-[(6-Ethyl-5,6,7,8-tetrahydro-1,6-naphthyridin-2-yl)amino]-1-methyl-6-oxo-1,6-dihydropyridin-3-yl}-5-fluoro-2-(hydroxymethyl)phenyl)-4,4-dimethyl-1,10-diazatricyclo[6.4.0.0^2,6]dodeca-2(6),7-dien-9-one] showed an IC50 of 2.8 nM. The EC50 in data set [2] amounted to 6 nM.
For `CCN1CCn2nc(Nc3cc(-c4cc(F)cc(N5CCn6c(cc7c6CC(C)(C)C7)C5=O)c4CO)cn(C)c3=O)cc2C1` [Example 285, 10-{3-[5-({5-Ethyl-4H,5H,6H,7H-pyrazolo[1,5-a]pyrazin-2-yl}amino)-1-methyl-6-oxo-1,6-dihydropyridin-3-yl]-5-fluoro-2-(hydroxymethyl)phenyl}-4,4-dimethyl-1,10-diazatricyclo[6.4.0.0^2,6]dodeca-2(6),7-dien-9-one] the same measures were 3.6 nM and 11 nM.
Turning to `CN(C)CCN(C)c1ccc(Nc2cc(-c3cc(F)cc(N4CCc5c(sc6c5CCCC6)C4=O)c3CO)cn(C)c2=O)nc1` [Example 286, 2-(3-(5-(5-((2-(Dimethylamino)ethyl)(methyl)amino)pyridin-2-ylamino)-1-methyl-6-oxo-1,6-dihydropyridin-3-yl)-5-fluoro-2-(hydroxymethyl)phenyl)-3,4,5,6,7,8-hexahydrobenzothieno[2,3-c]pyridin-1(2H)-one], the melting point was 122 to 123 °C. Further, in data set [2], the EC50 turned out to be 4 nM.
For the molecule `CN(Cc1cc(Nc2cc(-c3cc(F)cc(N4CCc5c(sc6c5CCCC6)C4=O)c3CO)cn(C)c2=O)nn1C)C1COC1` [Example 324, 5-[5-Fluoro-2-(hydroxymethyl)-3-{1-methyl-5-[(1-methyl-5-{[methyl(oxetan-3-yl)amino]methyl}-1H-pyrazol-3-yl)amino]-6-oxo-1,6-dihydropyridin-3-yl}phenyl]-8-thia-5-azatricyclo[7.4.0.0^2,7]trideca-1(9),2(7)-dien-6-one], inhibition in data set [1] was half-maximal at 53 nM (IC50).
Same read-out and setting: the result for `CN1CCC(c2ccc(Nc3cc(-c4cccc(N5CCc6c(sc7c6CC(C)(C)C7)C5=O)c4CO)cn(C)c3=O)nc2)CC1` [Example 325, 10-[2-(Hydroxymethyl)-3-(1-methyl-5-{[5-(1-methylpiperidin-4-yl)pyridine-2-yl]amino}-6-oxopyridin-3-yl)phenyl]-4,4-dimethyl-7-thia-10-azatricyclo[6.4.0.0^2,6]dodeca-1(8),2(6)-dien-9-one] reads 24 nM.
Still for that read-out and setting: the result for `COCc1c(-c2cc(Nc3ccc(N4CCN(C)CC4)cn3)c(=O)n(C)c2)cc(F)cc1N1CCn2c(cc3c2CCCC3)C1=O` [Example 343, 2-{5-fluoro-2-(methoxymethyl)-3-(1-methyl-5-(5-(4-methylpiperazin-1-yl)pyridin-2-ylamino)-6-oxo-1,6-dihydropyridin-3-yl)phenyl)-3,4,6,7,8,9-hexahydropyrazino[1,2-a]indol-1(2H)-one] reads 53 nM; that for `CN1CCN(c2ccc(Nc3cc(-c4cc(F)cc(N5CCn6c(cc7c6CCCC7)C5=O)c4CO)cn(C)c3=O)nc2)C(=O)C1` [Example 345, 2-(5-fluoro-2-(hydroxymethyl)-3-(1-methyl-5-(5-(4-methyl-2-oxopiperazin-1-yl)pyridin-2-ylamino)-6-oxo-1,6-dihydropyridin-3-yl)phenyl)-3,4,6,7,8,9-hexahydropyrazino[1,2-a]indol-1(2H)-one], 24 nM.
